Blank lines part the entries; values can stand above or below the compound they belong to. Where a SMILES comes first, the peptide text is derived from it. The star is where a group is joined. Cbz = O=C(OCc1ccccc1)*
Tests used:
CRBN = CRBN (Homo sapiens, UniProt Q96SW2); assay: Surface plasmon resonance with immobilized His-tagged cereblon; conditions: SPR; average of at least 2 experiments; N.B - no binding observed
Protocol: With unprecedented access to novel analogues of ImiDs, the structure-activity relationships with respect to Cereblon binding and the degradation of Aiolos (IKZF3) and CK1αwe were explored. To assess binding of ImiD analogues to Cereblon directly, an SPR assay with His-tagged Cereblon immobilized was employed. Dose-response curves were measured for each analogue and Kd values calculated.
Surface Plasmon Resonance
The surface plasmon resonance (SPR) experiments were conducted on a S200 Biacore (GE Healthcare). His-tagged cereblon protein was immobilized on a carboxymethylated dextran surface with nitriloacetic acid (NTA), taking advantage of NTA/Ni2+ chelation. The prepared surface equilibrated overnight in running buffer (10 mM HEPES buffer @ pH 7.4, 150 mM NaCl, 0.4 mg/mL BSA, 0.005% P20, 2% DMSO).
All compounds were prepared in 100% DMSO stock plates with a top concentration of 5 mM in a 3× serial dilution. Compounds were transferred from the stock plate to the assay plate and diluted into running buffer containing no DMSO.
Data analysis was performed in S200 Bia-evaluation software (GE Healthcare). Blanks were subtracted and data was corrected for DMSO using a standard DMSO curve.

c-Myc = assay: Western blot analysis of c-Myc in BL cell lines; assay type: cell-based; conditions: NAMALWA cells; for c-Myc protein level (immunoblot): overnight
Protocol: (§1) Cultured cells were collected in lysis buffer containing 40 mM HEPES (pH 7.4), 140 mM NaCl, 2.5 mM EDTA, 1% NP-40, 0.1% SDS and protease inhibitor cocktail. After 10 minutes of centrifugation (14000 rpm), supernatant was collected for protein concentration determination by BCA method and subjected for immunoblotting by standard protocol. Western blot results were visualized using Bio-Rad Clarity ECL Western Blotting Substrate on Bio-Rad ChemiDoc™ MP imaging system.
A separate set of cells were treated in the same manner, except that DMSO was used in place of the inhibitor. Following treatment, cell lysates were collected and analyzed by immunoblot for c-Myc and Actin.
Cells were re-seeded and incubated without inhibitor for 0 hr, 0.5 hr, 1.0 hr, 2.0 hr, 3.0 hr, 4.0 hr, and 6.0 hr. Cell lysates were then collected at the various time points and analyzed by immunoblot for c-Myc and Actin. In a parallel control experiment, NAMALWA cells were treated in the same manner, except DMSO was used in place of JQ1.
After treatment, the cells were either lysed (to evaluate the suppression of c-Myc by the inhibitors) or washed to remove the inhibitor, re-seeded, and incubated without inhibitor for 4.0 hours (to evaluate the reversibility of c-Myc suppression). Cell lysates were collected and analyzed by immunoblot for c-Myc and Actin.
Following treatment, cell lysates were collected and analyzed by immunoblot for BRD4, c-Myc and Actin.
(§2) Cells were re-seeded in fresh medium and incubated without any compound for 0 hr, 2.0 hr, 4.0 hr, 6.0 hr, and 24.0 hr. In a parallel control experiment, cells were treated in the same manner, except DMSO was used in place of inhibitor. Lysates were collected and analyzed by immunoblot for BRD4, c-Myc, and Actin.

PARP = PARP cleavage immunoblot in BL cells; assay type: cell-based; conditions: 48 hours; A825 0.1 uM, JQ1 and OTX15 up to 10.0 μM; Ramos cells
Protocol: as §1
Lysates were collected and analyzed by immunoblot for PARP cleavage with actin as loading control.

BRD4 = target: T1, BRD4 (Homo sapiens, UniProt O60885); assay: Western blot analysis of BRD4 in BL cell lines; assay type: cell-based; conditions: overnight; for effect of proteasome inhibitor on A825-induced BRD4 degradation: inhibitor 5 μM with A825 10 nM or 100 nM, NAMALWA cells
T1 construct: endogenous in cells; host or cells: NAMALWA, Ramos, CA-46, DAUDI
Protocol: as §1
A separate set of cells were treated in the same manner, except that DMSO was used in place of the inhibitor. […] Following treatment, cell lysates were collected and analyzed by immunoblot for BRD4 and Actin.
Specifically, NAMALWA and Ramos cells were treated with 300 nM of each inhibitor for 0 hr, 0.5 hr, 1.0 hr, 2.0 hr, 4.0 hr, 7.0 hr, 24 hr, and 48.0 hr. Following treatment, cell lysates were collected and analyzed by immunoblot for BRD4 and Actin.
(§3) Following treatment, cell lysates were collected and analyzed by immunoblot for BRD4 and Actin.
as §3, §3, §3, §2

[1] = test system: BL cell lines (NAMALWA, Ramos, CA-46, Daudi); assay: Proliferation assay (CellTiter-Glo) in BL cell lines; assay type: cell-based; conditions: pomalidomide alone up to 10 μM; 72 hours
Protocol: To assess the effect of the inhibitors on proliferation, cells (50,000/100 μl) were seeded in 96-well tissue culture plates followed by addition of compound at the indicated concentration. After 72 hours, 100 μL per well of reconstituted CellTiter-Glo (CTG) reagent (#G7572 from Promega) was added and read on Cytation 3 imaging reader from BioTek. Relative cell growth was determined by comparing assay readings of treated cells with control DMSO treated cells.
Specifically, NAMALWA, Ramos, CA-46, and Daudi cell lines were seeded at 50,000 cells/100 μl in 96-well plates. […] Following treatment, the relative proliferation of the samples was determined by CTG assay 72 hours following treatment.
Cells were re-seeded in fresh medium and incubated without any compound for 0 hr, 24.0 hr, and 48.0 hr. In a parallel control experiment, cells were treated in the same manner, except DMSO was used in place of inhibitor. Following treatment, the relative proliferation of the samples was determined by CTG assay.
In a parallel control experiment, cells were treated in the same manner, except DMSO was used in place of inhibitor. Following treatment, the relative proliferation of the samples was determined by CTG assay.
In a parallel experiment, cells were treated in the same manner, except DMSO was used in place of pomalidomide.

androgen receptor (AR) = target: T2, androgen receptor (AR) (Homo sapiens, UniProt P10275); assay: AR ELISA protocol, degradation in VCaP cells; assay type: cell-based; set-up: Dmax: dose or concentration left out as unconfirmed; conditions: 16 h
T2 construct: detects endogenous levels of total androgen receptor protein; endogenous in cells; host or cells: VCaP
T2 sequence (P10275 1-920): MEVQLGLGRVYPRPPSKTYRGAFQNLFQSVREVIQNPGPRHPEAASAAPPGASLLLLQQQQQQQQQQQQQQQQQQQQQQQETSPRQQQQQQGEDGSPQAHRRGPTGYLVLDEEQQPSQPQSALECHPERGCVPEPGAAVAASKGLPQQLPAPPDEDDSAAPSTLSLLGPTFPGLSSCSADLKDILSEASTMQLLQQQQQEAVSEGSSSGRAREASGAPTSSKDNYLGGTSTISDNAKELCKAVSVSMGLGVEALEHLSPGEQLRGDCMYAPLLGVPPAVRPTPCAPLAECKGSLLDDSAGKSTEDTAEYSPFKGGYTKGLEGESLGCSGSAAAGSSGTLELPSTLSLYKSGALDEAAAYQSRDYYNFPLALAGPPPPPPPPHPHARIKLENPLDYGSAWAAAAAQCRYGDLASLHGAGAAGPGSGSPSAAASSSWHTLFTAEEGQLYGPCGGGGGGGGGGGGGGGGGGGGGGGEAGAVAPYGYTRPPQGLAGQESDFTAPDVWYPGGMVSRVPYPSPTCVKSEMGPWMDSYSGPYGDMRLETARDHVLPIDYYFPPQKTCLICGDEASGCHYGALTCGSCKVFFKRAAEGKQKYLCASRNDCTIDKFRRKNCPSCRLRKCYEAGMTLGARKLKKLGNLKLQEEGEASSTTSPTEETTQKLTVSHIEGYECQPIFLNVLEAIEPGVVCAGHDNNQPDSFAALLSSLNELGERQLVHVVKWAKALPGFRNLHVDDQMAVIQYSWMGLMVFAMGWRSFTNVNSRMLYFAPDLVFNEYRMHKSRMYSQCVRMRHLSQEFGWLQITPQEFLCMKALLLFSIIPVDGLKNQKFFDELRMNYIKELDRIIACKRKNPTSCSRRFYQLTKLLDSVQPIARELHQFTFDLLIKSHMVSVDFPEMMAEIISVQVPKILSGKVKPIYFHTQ
Protocol: In each bioassay, cells were treated with varying amounts of compounds encompassed by the present disclosure, as shown in Table 1. The degradation of the following proteins were evaluated in this study: TANK-binding kinase 1 (TBK1), estrogen receptor α (ERα), bromodomain-containing protein 4 (BRD4), androgen receptor (AR), and c-Myc.
VCaP cells were purchased from ATCC and cultured in Dulbecco's Modified Eagle's Medium (ATCC), supplemented with 10% FBS (ATCC) and Penicillin/Streptomycin (Life Technologies). DMSO control and compound treatments (0.0001 μM-1 μM) were performed in 96-well plates for 16 h. Cells were harvested, and lysed with Cell Lysis Buffer (Catalog #9803) (20 mM Tris-HCL (pH 7.5), 150 mM NaCl, 1 mM Na2EDTA, 1 mM EGTA, 1% Triton, 2.5 mM sodium pyrophosphate, 1 mM B-glycerophosphate, 1 mM Na3VO4, 1 ug/ml leupeptin. Lysates were clarified at 16,000 g for 10 minutes, and loaded into the PathScan AR ELISA (Cell Signaling Catalog #12850). The PathScan® Total Androgen Receptor Sandwich ELISA Kit is a solid phase sandwich enzyme-linked immunosorbent assay (ELISA) that detects endogenous levels of total androgen receptor protein. An Androgen Receptor Rabbit mAb has been coated onto the microwells. After incubation with cell lysates, androgen receptor protein is captured by the coated antibody. Following extensive washing, an Androgen Receptor Mouse Detection mAb is added to detect the captured androgen receptor protein. Anti-mouse IgG, HRP-linked Antibody is then used to recognize the bound detection antibody. HRP substrate, TMB, is added to develop color. The magnitude of absorbance for the developed color is proportional to the quantity of total androgen receptor protein. Antibodies in kit are custom formulations specific to kit.

Chain of CRBN (Q96SW2 whole entry): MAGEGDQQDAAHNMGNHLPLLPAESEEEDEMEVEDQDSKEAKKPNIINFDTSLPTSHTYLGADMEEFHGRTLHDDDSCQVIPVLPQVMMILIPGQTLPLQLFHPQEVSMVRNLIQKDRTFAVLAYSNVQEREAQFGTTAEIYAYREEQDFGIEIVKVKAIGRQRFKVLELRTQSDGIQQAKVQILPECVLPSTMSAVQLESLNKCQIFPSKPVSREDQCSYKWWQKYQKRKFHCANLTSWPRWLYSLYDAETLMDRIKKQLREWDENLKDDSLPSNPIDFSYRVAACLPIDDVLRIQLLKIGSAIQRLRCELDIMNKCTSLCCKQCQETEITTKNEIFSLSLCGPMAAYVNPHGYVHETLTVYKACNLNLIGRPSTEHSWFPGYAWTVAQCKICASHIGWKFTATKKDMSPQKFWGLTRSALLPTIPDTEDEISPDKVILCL

- Kd (CRBN): 221 ± 52 nM
Structure (SMILES): CC(C)(C)c1ccc2c(c1)C(=O)N(C1CCC(=O)NC1=O)C2=O (stereo not drawn) [Compound 11]

Structure (SMILES): Cc1sc2c(c1C)C(c1ccc(Cl)cc1)=N[C@@H](CC(=O)Nc1ccc(O)cc1)c1nnc(C)n1-2 [OTX-15]
- c-Myc protein level (immunoblot) (c-Myc; 100 nM to 1000 nM): significant suppression
- c-Myc protein level (immunoblot) (c-Myc; up to 3000 nM): neither JQ1 nor OTX-15 was able to completely suppress c-Myc expression
- apoptosis by PARP cleavage (PARP): significantly higher dose

Structure (SMILES): CC(C)C[C@@H](C=O)NC(=O)[C@H](CC(C)C)NC(=O)[C@H](CC(C)C)NC(=O)OCc1ccccc1 [MG132] (Cbz-Leu-Leu-Leu-aldehyde)
- effect of proteasome inhibitor on A825-induced BRD4 degradation (BRD4): completely prevented BRD4 degradation

Structure (SMILES): Cc1sc2c(c1C)C(c1ccc(Cl)cc1)=N[C@@H](CC(=O)OC(C)(C)C)c1nnc(C)n1-2 [JQ1]
- c-Myc protein level (immunoblot) (c-Myc; 100 nM to 1000 nM): significant suppression
- time for c-Myc protein to return to control level after inhibitor removal (c-Myc; 1000 nM 24 h, washout): ≤ 3.0 h
- c-Myc protein level (immunoblot) (c-Myc; up to 3000 nM): neither JQ1 nor OTX-15 was able to completely suppress c-Myc expression
- apoptosis by PARP cleavage (PARP): significantly higher dose

- effect of proteasome inhibitor on A825-induced BRD4 degradation (BRD4): completely prevented BRD4 degradation
Structure (SMILES): CC(C)C[C@H](NC(=O)[C@H](CCc1ccccc1)NC(=O)CN1CCOCC1)C(=O)N[C@@H](Cc1ccccc1)C(=O)N[C@@H](CC(C)C)C(=O)[C@@]1(C)CO1 [Carfizomib]

- Kd (CRBN): 111 ± 6 nM
Structure (SMILES): O=C1CCC(N2C(=O)c3cccc4cccc(c34)C2=O)C(=O)N1 (stereo not drawn) [Compound 12]

- BRD4 protein level (immunoblot) (BRD4; pomalidomide 10 μM alone, NAMALWA and Ramos cells): not affected
Structure (SMILES): Nc1cccc2c1C(=O)N(C1CCC(=O)NC1=O)C2=O (stereo not drawn) [Pomalidomide, pomalidomide, reference compound]
- effect on BL cell proliferation [1]: did not result in a significant effect on the proliferation

Structure (SMILES): CC1(C)C(=O)N(c2ccc(C#N)c(C(F)(F)F)c2)C(=S)N1c1ccc(-c2ccc(OCCCCCNc3cccc4c3C(=O)N(C3CCC(=O)NC3=O)C4=O)cc2)cc1 (stereo not drawn) [Compound 13, 4-(3-(4-(4-((5-((2-(2,6-dioxopiperidin-3-yl)-1,3-dioxo-2,3-dihydro-1H-isoindol-4-yl)amino)pentyl)oxy)phenyl)phenyl)-4,4-dimethyl-5-oxo-2-sulfanylidene-imidazolidin-1-yl)-2-(trifluoromethyl) benzonitrile]
- Dmax at 1 µM (androgen receptor (AR)): > 50%

Structure (SMILES): CC1(C)C(=O)N(c2ccc(C#N)c(C(F)(F)F)c2)C(=S)N1c1ccc(OCCOCCOCCOCCNc2cccc3c2C(=O)N([C@@H]2CCC(=O)NC2=O)C3=O)cc1 [Compound 5, (R)-4-(3-(4-(2-(2-(2-(2-((2-(2,6-dioxopiperidin-3-yl)-1,3-dioxoisoindolin-4-yl)amino)ethoxy)ethoxy)ethoxy)ethoxy)phenyl)-4,4-dimethyl-5-oxo-2-thioxoimidazolidin-1-yl)-2-(trifluoromethyl) benzonitrile]
- Dmax at 1 µM (androgen receptor (AR)): 31 to 50%

Structure (SMILES): CC1(C)C(=O)N(c2ccc(C#N)c(C(F)(F)F)c2)C(=S)N1c1ccc(OCCCCOCCOCCOCCNc2cccc3c2C(=O)N(C2CCC(=O)NC2=O)C3=O)cc1 (stereo not drawn) [Compound 10]
- Dmax (androgen receptor (AR)): 31 to 50%

- Kd (CRBN): > 11000 nM
Structure (SMILES): O=C1CCC(N2C(=O)c3ccc([N+](=O)[O-])cc3C2=O)C(=O)N1 (stereo not drawn) [Compound 16]

Structure (SMILES): CC1(C)C(=O)N(c2ccc(C#N)c(C(F)(F)F)c2)C(=S)N1c1ccc(OCCOCCOCCOCCOCCOCCNc2cccc3c2C(=O)N(C2CCC(=O)NC2=O)C3=O)cc1 (stereo not drawn) [Compound 6, 4-(3-(4-((17-((2-(2,6-dioxopiperidin-3-yl)-1,3-dioxoisoindolin-4-yl)amino)-3,6,9,12,15-pentaoxa-heptadecyl)oxy)phenyl)-4,4-dimethyl-5-oxo-2-thioxoimidazolidin-1-yl)-2-(trifluoromethyl) benzonitrile]
- Dmax at 1 µM (androgen receptor (AR)): 10 to 30%

Reference: patent US11834460B2, “Imide-based modulators of proteolysis and associated methods of use” (YALE UNIVERSITY, priority 2018, dated 2023)
